Reference: patent publication US9179682B2, “Biocides and apparatus” (A.Y. Laboratories Ltd., priority 2004, dated 2015)

Test: Reduction of Na2S: total sulfur and sulfate after addition of oxidizer, Series 7
Settings: 100 ml DI water with ~5 mg sodium sulfide; several days after addition of oxidizer
Protocol: A series of containers each containing 100 ml DI water in which ˜5 mg of sodium sulfide was dissolved were prepared. To each container an appropriate amount of an oxidizer or a control solution was added as follows: • a. […] Monochloroamine (MCA) formed from ammonium sulfate and NaOCl (1:1 molar ratio, each component pre-diluted before mixing, 15 ppm as total chlorine). • d.
Samples were analyzed for total sulfur and for sulfate several days after addition of oxidizer.

O=N[O-].[Na+] [Test A, NaNO2]
% S remaining: 100%
